Laboratory results taken from article PMC7385176, “Engineering a disulfide-gated switch in streptavidin enables reversible binding without sacrificing binding affinity” (Scientific Reports, 2020).
Where two headings read alike, the source gives them in different places.

Experiments:
[1] = Biotin-4-fluorescein on-rate assay; assay type: binding; conditions: 25 °C
Method: Association kinetics were also monitored by utilizing B4F. […] 20 μL streptavidin was added and measurements were started immediately on a Horiba FluoroMax-4 spectrofluorometer with 490 nm excitation/525 nm emission and 2 and 15 nm slit widths, respectively, for the monochromator. Protein concentrations used were: 0.4, 0.8, 1.6, 2.4, 3.2 nM for wt; 0.8, 1.6, 3.2, 6.4 nM for oxidized M112; 0.4, 0.8, 1.6, 3.2 nM for reduced M112; 0.77, 1.5, 3.1, 6.1 nM for reduced M88 and 6.25, 12.5, 25, 50 nM for traptavidin. For oxidized M88, measurements were done in 60 μL total volume using 10 nM B4F and 50, 100, 200 and 400 nM M88.

[2] = Biotin-4-fluorescein off-rate assay (competitive, fluorescence quenching; Arrhenius extrapolation)
Method: Dissociation kinetics were measured with a competitive assay exploiting the fluorescence quenching of B4F upon binding to streptavidin[13],[30]. In a total volume of 200 μL, 50 nM streptavidin, 10 nM B4F (Invitrogen), 50 mM NaCl, 1 mM EDTA, 20 mM Tris pH 8, were incubated for 30 min. Biotin was added to 0.1 mM to prevent B4F re-association and fluorescence was monitored using a Tecan Infinite M200 plate reader with 485 nm excitation/525 nm emission for 12 h at 25 °C. The maximum, with all B4F unbound, and minimum, with all B4F bound, fluorescence was determined with similar mixtures in the absence of either streptavidin or biotin, respectively, and the fraction of B4F released at each time point was calculated as %B4FReleased=response-min/max-min×100% . […] The rapid phase was ignored and off-rate constants were determined by nonlinear least squares fitting of the data to the single exponential function y=1-e^kt .
High-temperature kinetics were measured by the same competitive assay but instead using a Horiba Jobin–Yvon FluoroMax-4 spectrofluorometer. To limit evaporation and condensation within the cuvette, it was filled to the top with 4 mL of solution using the same concentrations of reagents as above. Fluorescence was initially measured without streptavidin, giving the maximum, unquenched signal. Streptavidin was then added and allowed to equilibrate until a constant fluorescent signal was achieved, and unlabelled biotin was added to start the experiment. At these higher temperatures, the rapid release phase was more apparent and accounted for by fitting the data to the double exponential function y=max-ae^-kat-be^-kbt. The linear Arrhenius plot was generated by plotting ln(koff) against 1/temperature. A linear least squares fit to the function lnkoff=lnA-Ea/RT was used to extrapolate the dissociation constant at lower temperatures.

[3] = Thermostability assay (heating in SDS, SDS-PAGE of tetramer); assay type: physicochemical; conditions: for denaturation of the tetramer: presence of biotin
Method: To assess thermostability, SDS was added to 2% to wild-type or previously oxidized M88 or M112 and was incubated in the presence or absence of 5 mM biotin and in the presence and absence of 200 mM β-mercaptoethanol for 15 min. The samples were heated at 75 or 95 °C for 1 h and aliquots taken every 5 min for the first 30 min, and then at 45 and 60 min. Samples from each time point were run on a 12% SDS-PAGE gel, which were than stained with Coomassie blue. Band intensity was quantified using ImageJ software and the fraction of protein that remained tetrameric was determined relative to time zero. The band intensities for a series of standards was determined to indicate the linear range for quantification.

[4] = Rate of disulfide bond formation (Alexa Fluor 633 maleimide labelling); assay type: physicochemical; conditions: 10 mM GSSG
Source text: Protein disulfide bond formation was catalyzed by thiol-disulfide exchange with either oxidized glutathione (GSSG) or 2,2′-dipyridyldisulfide. Disulfide bonds were inferred by selectively labelling free Cys with Alexa Fluor 633 C5 maleimide (Invitrogen) and subsequent separation by Tricine SDS-PAGE[50]. Detection is based on both fluorescence and a mobility shift due to the large size of these labels (~ 1.3 kDa each, ~ 2.6 kDa if both cysteines in M88 or M112 react). Ratios of reactants were based on those previously described for saturation labelling. Because the N- and C-terminal tails are susceptible to degradation by trace proteases, leading to band heterogeneity in the gel, core-form versions of M88 and M112 were primarily used for this assay. […] Immediately after the run, fluorescence was measured with excitation by 635 nm laser and emission collected through a 665 nm long-pass filter on a Typhoon FLA 9,500 laser scanner (GE Healthcare).
To measure the time course of disulfide formation, streptavidin muteins were reduced with TCEP which was subsequently removed by centrifugal filtration. […] Fluorescence intensity of each band was quantified using ImageQuant software and the amount off free Cys at each timepoint was determined relative to the initial amount. […]

[5] = cited from earlier work

Substance	decrease in rate of association compared to the reduced form of M88 [1] [fold]	decrease in rate of association compared to wild-type streptavidin [1] [fold]	kon ([1]; B4F, ± standard error)	change in B4F fluorescence (dissociation) ([2]; 25 °C, after 12 h)	rate of dissociation lower than wild-type streptavidin ([2]; 25 °C, extrapolated) [fold]	stability during kinetics measurement ([2]; 90 °C)	rate of dissociation relative to traptavidin ([2]; Arrhenius plot, 25–90 °C)	t1/2 ([2]; B4F, 25 °C, calculated as ln(2)/koff) [years]	koff ([2]; B4F, 25 °C, extrapolated from the Arrhenius plot)	tetramer state after heating ([3]; 75 °C, without biotin, 60 min incubation)	denaturation of the tetramer ([3]; 95 °C, 60 min incubation)	increase in rate of dissociation for B4F, oxidized vs reduced M112 ([2]; 25 °C)	pseudo-first order rate constant of disulfide bond formation ([4]; 21 °C) [h⁻¹]	pseudo-first order rate constant of disulfide bond formation ([4]; 37 °C) [h⁻¹]	time to denature completely ([3]; 75 °C, absence of biotin) [min]	time to complete denaturation ([3]; 95 °C, biotin absent)	melting temperature ([5]; apo-streptavidin) [°C]	state at boiling temperatures ([5]; presence of SDS)	melting temperature ([5]; streptavidin–biotin complex) [°C]
M88 oxidized: M88 (N49C/A86C streptavidin mutein) with the Cys-49/Cys-86 disulfide bond formed	18.5	117	4.6 ± 0.3 × 10^5 M^-1 s^-1	no change in B4F fluorescence measurable	225	appeared to be stable	approximately half	18.3 ± 6.1	1.2 ± 0.4 × 10^–9 s^-1	remains tetrameric	no appreciable denaturation	–	–	–	–	–	–	–	–
M112: streptavidin mutein G26C/A46C with a Cys-26/Cys-46 disulfide bond on the N-terminal side of loop 3–4	–	–	–	–	–	–	–	–	–	–	–	~ 60 fold	0.14 ± 0.02	0.41 ± 0.06	–	–	–	–	–
Wild-type: 66-kDa homotetrameric biotin-binding protein from Streptomyces avidinii; obtained from Bio Basic	–	–	–	–	–	–	–	–	–	–	no appreciable denaturation	–	–	–	≤ 5	less than 1 min	75.5	remains tetrameric and bound to biotin	112.2
